Reference: the supplement of paper PMC8612539
Converted amounts (≈) assume the structure as drawn.

System: Mannheimia haemolytica
Test: minimum inhibitory concentration (MIC)
Protocol: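 Broth microdilution MIC (Sensititre BOPO7F bovine plate, CLSI methods) of 19 antimicrobials against field isolates of P. multocida, M. haemolytica, H. somni (deep nasopharyngeal swabs) and E. coli, Enterococcus spp. (rectal swabs) from weaned dairy heifers. Incubation 16-24 h at 35 C. MIC is the lowest concentration preventing visible growth. Values with <= or > lie at the tested range limits. Trimethoprim-sulfamethoxazole is given as the trimethoprim component of a 1:19 mixture.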

CN(C)[C@@H]1C(O)=C(C(N)=O)C(=O)[C@@]2(O)C(O)=C3C(=O)c4c(O)cccc4[C@@](C)(O)[C@H]3C[C@@H]12 [Tetracycline]
Settings	minimum inhibitory concentration [µg/mL]
isolate (source animal id): 56	> 8
isolate (source animal id): 57	> 8
isolate (source animal id): 100	> 8
isolate (source animal id): 103	4 (≈ 9 µM)
isolate (source animal id): 107	4 (≈ 9 µM)
isolate (source animal id): 108	> 8
isolate (source animal id): 112	> 8
isolate (source animal id): 113	> 8
isolate (source animal id): 121	8 (≈ 18 µM)
isolate (source animal id): 122	4 (≈ 9 µM)
isolate (source animal id): 123	> 8
isolate (source animal id): 126	4 (≈ 9 µM)
isolate (source animal id): 133	> 8
isolate (source animal id): 135	> 8
isolate (source animal id): 138	4 (≈ 9 µM)
isolate (source animal id): 141	> 8
isolate (source animal id): 142	> 8
isolate (source animal id): 145	4 (≈ 9 µM)
isolate (source animal id): 149	≤ 0.5
isolate (source animal id): 151	≤ 0.5
isolate (source animal id): 152	4 (≈ 9 µM)
isolate (source animal id): 154	≤ 0.5
isolate (source animal id): 159	4 (≈ 9 µM)
isolate (source animal id): 162	4 (≈ 9 µM)
isolate (source animal id): 170	8 (≈ 18 µM)
isolate (source animal id): 171	≤ 0.5
isolate (source animal id): 172	8 (≈ 18 µM)
isolate (source animal id): 173	8 (≈ 18 µM)
isolate (source animal id): 179	4 (≈ 9 µM)
isolate (source animal id): 180	4 (≈ 9 µM)
isolate (source animal id): 183	4 (≈ 9 µM)
isolate (source animal id): 186	4 (≈ 9 µM)
isolate (source animal id): 187	4 (≈ 9 µM)
isolate (source animal id): 188	4 (≈ 9 µM)
isolate (source animal id): 190	≤ 0.5
isolate (source animal id): 191	8 (≈ 18 µM)
isolate (source animal id): 192	≤ 0.5
isolate (source animal id): 201	8 (≈ 18 µM)
isolate (source animal id): 202	4 (≈ 9 µM)
isolate (source animal id): 209	8 (≈ 18 µM)
isolate (source animal id): 211	≤ 0.5
isolate (source animal id): 220	8 (≈ 18 µM)
isolate (source animal id): 221	4 (≈ 9 µM)
isolate (source animal id): 223	4 (≈ 9 µM)
isolate (source animal id): 233	4 (≈ 9 µM)
isolate (source animal id): 237	≤ 0.5
isolate (source animal id): 241	8 (≈ 18 µM)
isolate (source animal id): 252	4 (≈ 9 µM)
isolate (source animal id): 253	> 8
isolate (source animal id): 259	8 (≈ 18 µM)
isolate (source animal id): 260	> 8
isolate (source animal id): 262	4 (≈ 9 µM)
isolate (source animal id): 282	4 (≈ 9 µM)
isolate (source animal id): 287	8 (≈ 18 µM)
isolate (source animal id): 288	≤ 0.5
isolate (source animal id): 291	≤ 0.5
isolate (source animal id): 293	4 (≈ 9 µM)
isolate (source animal id): 298	> 8
isolate (source animal id): 299	> 8
isolate (source animal id): 300	≤ 0.5
isolate (source animal id): 302	> 8
isolate (source animal id): 304	> 8
isolate (source animal id): 306	≤ 0.5
isolate (source animal id): 308	≤ 0.5
isolate (source animal id): 309	≤ 0.5
isolate (source animal id): 313	4 (≈ 9 µM)
isolate (source animal id): 318	4 (≈ 9 µM)
isolate (source animal id): 320	≤ 0.5
isolate (source animal id): 321	4 (≈ 9 µM)
isolate (source animal id): 323	> 8
isolate (source animal id): 324	8 (≈ 18 µM)
isolate (source animal id): 326	4 (≈ 9 µM)
isolate (source animal id): 328	8 (≈ 18 µM)
isolate (source animal id): 329	4 (≈ 9 µM)
isolate (source animal id): 333	4 (≈ 9 µM)
isolate (source animal id): 335	4 (≈ 9 µM)
isolate (source animal id): 338	4 (≈ 9 µM)
